Experimental data published in patent US20050009886A1, “1,4-Dihydropyridine derivative with a guaiacoxypropanolamine and/or phenoxypropanolamine moiety” (priority 1998, published 2005).

Key:
A7r5 cells = details: 10^−8, 10^−7, 10^−6M for 5 minutes
isolated atria = test: Direct effect (intrinsic sympathomimetic activity) on reserpine pretreated isolated atria; design: species or system Wistar rat
Description: Wistar rats of weight between 200˜300 gm were used. 18˜24 hours before the experiment, 5 mg/kg of reserpine was injected via abdominal cavity to remove all endogenous catecholamines. Prior experiment, Wistar rats were sacrificed, the heart was immediately removed and placed in Kreb's solution aerated with air mixture and maintained at room temperature. The right and left atria were carefully separated.

atrial β 1-receptor = biological target: T1, atrial β 1-receptor (Rattus norvegicus, UniProt P18090); format: binding, Wistar rat; details: 25° C., 60 minutes
T1 construct: The heart and lung of rat were removed and placed in cold Tris buffer; from tissue; host or cells: membrane preparation from rat atria

Calcium = Calcium antagonism (pKCa^−1, Table 2)
right atrium = details: 10^−7, 10^−6, and 10^−5M; CaCl2 3.0, 6.0, 9.0 mM
Description: The right atrium of the rats was allowed to equilibrate in Kreb's solution for at least 60 minutes. When the spontaneous beating rate had reached a certain stability, CaCl2 of different concentrations (3.0, 6.0, and 9.0 mM) were cumulatively administered, and the changes in the spontaneous beating of right atrium were observed. […] 30 minutes later, different concentrations (3.0, 6.0, and 9.0 mM) were cumulatively administered, and the changes in the spontaneous beating of right atrium were observed again.

β2-adrenoceptor = biological target: T2, β2-adrenoceptor (Cavia porcellus, UniProt Q8K4Z4); test: Direct effect (intrinsic sympathomimetic activity) on reserpine pretreated isolated tracheal; design: species or system guinea pig
T2 construct: a portion of tracheal approximately 4 cm long was removed; from tissue; host or cells: isolated trachea of reserpine-pretreated guinea pigs
Description: 18˜24 hours before the experiment, 5 mg/kg of reserpine was injected via abdominal cavity to remove all endogenous catecholamines. Prior experiment, guinea pigs were sacrificed, the tracheal was immediately removed and placed in Kreb's solution aerated with air mixture and maintained at room temperature of 22˜25° C. […] Then the tissue was repeatedly washed with Kreb's solution.

β-adrenoreceptor (β1) = biological target: T3, β-adrenoreceptor (β1) (Rattus norvegicus, UniProt P18090); test: Isolated left atrium, L-isoproterenol-induced contractility increase (pA2); design: species or system Wistar rat; details: for β1 Value of pA2 Left Atrium: vs L-isoproterenol, electrically stimulated
T3 construct: The right and left atria were then separated; from tissue; host or cells: isolated rat right atrium (spontaneously beating) and left atrium (electrically paced)
Description: The inspontaneously-beating left atrial tissue was obtained from rat's isolated right atrial tissue experiments. […] The contraction rate was 1 Hz and the resting tension 0.5 gm. After 60 minutes of equilibration, the following experiments were performed:
(a) Completion of cumulative concentration-response curve: similar to experimental method on isolated right atrium;
(b) Calculation of pA2 value: similar to calculation method on isolated right atrium.

thoracic aorta = test: Isolated thoracic aorta contraction caused by 75 mM KCl; design: species or system Wistar rat
Description: After sacrificing Wistar rat of weight between 300-500 gm, the thoracic aorta was immediately removed and placed in cold Kreb's solution. The fatty connecting tissue surrounding the vessel wall was removed and the thoracic aorta was cut into rings of length 5 mm. The two ends of each ring was pieced and fixed with “Z” shaped platinum wires. […] The sample was given 1 gm of tension and equilibrated for 60 minutes before the following experiments were carried out:
After thoracic aorta had reached equilibrium in the tissue trough, the normal Kreb's solution in the trough was replaced with 75 mM KCl solution to induce vasoconstriction. When the results had been recorded for at least 35 minutes, the aorta was repeatedly rinsed with normal Kreb's solution. After the aorta had re-equilibrated and at least rested for 60 minutes, different concentrations (10^−8, 10^−7, 10^−6, and 10^−5M) of compound 1 were separately added. 30 minutes later, 75 mM KCl was added again to induce vasoconstriction. This method was used to compare the differences in contraction induced by 75 mM KCl on thoracic aorta pre-treated and non-treated with compound 1.
0.1 μM of BayK8644 was first added into the tissue trough. 10 minutes later, 75 mM of concentrated Potassium solution was added to induce thoracic aorta contraction. When vasoconstriction had reached stability, different concentrations of (10^−8, 10^−7, 10^−6, and 10^−5M) compound 1 were separately added. The effects of aorta contraction induced by concentrated Potassium solution were observed.

[1] = Heart rate and blood pressure in living rat; format: in vivo, Wistar rats
Text: Male Wistar rats, weighing 200˜300 g were abdominal anaesthetized with pentobarbital sodium. Tracheal was cannulated to maintain normal respiration. Polyethylene tube was inserted into the left femoral vein to facilitate drug administration. A 3-way stopcock was used, with one end connected to a syringe for drug injection, while the other end was connected to the syringe filled with physiological saline. The latter was used to prevent residual drugs in the polyethylene tube after injection, which would affect experimental accuracy.
The right femoral artery was also inserted with polyethylene, and a 3-way stopcock was used too, where one end was connected to heparin solution to prevent embolism. The other end was connected to a Disposable Diaphragm Dome, TA1019, and linked to a transducer. Through an amplifier, a recorder recorded the overall and average arterial pressure; heart rate to evaluate the effect of drug on blood pressure and heart rate.

[2] = 1 mg/kg via femoral vein, anaesthetized rat
[3] = intravenous 0.1-2.0 mg/kg, normotensive rats

T3 sequence (P18090 whole entry): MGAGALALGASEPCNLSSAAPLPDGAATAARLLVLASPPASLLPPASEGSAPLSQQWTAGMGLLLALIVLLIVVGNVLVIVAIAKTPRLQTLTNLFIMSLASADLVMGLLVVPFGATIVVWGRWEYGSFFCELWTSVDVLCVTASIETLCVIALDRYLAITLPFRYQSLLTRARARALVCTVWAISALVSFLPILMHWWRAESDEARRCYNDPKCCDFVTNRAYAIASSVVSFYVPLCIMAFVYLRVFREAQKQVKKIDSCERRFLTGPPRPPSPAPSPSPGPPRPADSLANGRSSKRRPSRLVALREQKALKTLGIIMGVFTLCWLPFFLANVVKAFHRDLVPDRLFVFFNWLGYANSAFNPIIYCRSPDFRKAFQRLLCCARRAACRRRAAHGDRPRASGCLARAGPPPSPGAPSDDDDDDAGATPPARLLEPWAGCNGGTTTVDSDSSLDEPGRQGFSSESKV
T2 sequence (Q8K4Z4 whole entry): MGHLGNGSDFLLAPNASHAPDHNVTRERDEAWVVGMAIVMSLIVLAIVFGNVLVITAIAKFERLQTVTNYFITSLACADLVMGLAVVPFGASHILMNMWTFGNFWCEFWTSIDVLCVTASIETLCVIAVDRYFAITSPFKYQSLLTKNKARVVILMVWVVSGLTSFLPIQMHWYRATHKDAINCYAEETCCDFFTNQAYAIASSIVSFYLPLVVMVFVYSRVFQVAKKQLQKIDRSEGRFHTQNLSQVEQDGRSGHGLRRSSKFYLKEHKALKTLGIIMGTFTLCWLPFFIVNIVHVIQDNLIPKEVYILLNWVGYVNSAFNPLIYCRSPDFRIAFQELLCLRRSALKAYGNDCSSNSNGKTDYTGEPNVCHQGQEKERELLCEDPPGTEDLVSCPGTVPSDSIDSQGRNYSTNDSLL
T1 sequence (P18090 whole entry): as the sequence (P18090 whole entry) above

[^3H] CGP-12177 (β1) pKi (atrial β 1-receptor): 6.61 ± 0.46 | block of heart contractility increment effect of L-isoproterenol (β-adrenoreceptor (β1); left atrium, 10^−6, 10^−5, and 10^−6 M as printed): could competitively block | β1 Left Atrium (Slope) (β-adrenoreceptor (β1); slope of Schild regression): (0.85 ± 0.02) | β1 Value of pA2 Left Atrium (β-adrenoreceptor (β1)): 6.91 ± 0.26 | β1 Value of pA2 Left Atrium (β-adrenoreceptor (β1); listed as compound 1): 6.91±0.26
SMILES: COC(=O)C1=C(C)NC(C)=C(C(=O)OC)C1c1ccc(OCC(O)CNC(C)(C)C)c(OC)c1 (stereo not drawn) [Compound 1]
calcium ion influx effect of BayK8644 (A7r5 cells; 10 μM BayK8644): significantly blocked | calcium ion influx effect of KCl (A7r5 cells; 50 mM KCl): significantly blocked | direct effect on right atrium beating rate and left atrium isometric contractions (isolated atria; cumulative administration, reserpine pretreated): could not increase the beating rate and isometric contractions | concentration with blocking effect on beating rate and isometric contractions (isolated atria; reserpine pretreated atria): ≥ 10^−5 M | Calcium Antagonism PKCa^−1 (Calcium): 7.82 ± 0.49 | effect on increased atrial beating rate induced by CaCl2 (right atrium): blocked | tracheal relaxation after pretreatment with ICI118, 551 (β2-adrenoceptor; ICI 118, 551 10^−8, 10^−9, 10^−10M for 30 minutes (nifedipine: 10^−8 M)): concentration-dependently shifting parallel to the right | direct tracheal relaxation effect (β2-adrenoceptor; cumulative 10^−10˜3×10^−6 M, reserpine pretreated tracheal): dose-dependant tracheal relaxation effect | effect on 75 mM KCl contracted thoracic aorta (thoracic aorta; 10^−8, 10^−7, 10^−6, and 10^−5 M): dose-dependant vasoconstriction | Aorta Relaxation (thoracic aorta; 10^−8M, 75 mM KCl contraction): 30 ± 3% | effect of 0.1 μM BayK8644 pre-treatment on the aorta effect (thoracic aorta; BayK8644 0.1 μM 10 minutes, then concentrated Potassium solution): would affect vasoconstriction function | Lowering of Blood Pressure [1, 2]: 70 ± 3 mmHg | Reduction of Heart Rate [1, 2]: 30 ± 2 beats/min | effect on heart rate ([1]; intravenous 0.5 mg/kg): a decrease in heart rate | duration of blood pressure lowering effect [1, 3]: approximately 1 hour | effect on blood pressure and heart rate [1, 3]: continuous dose-dependent blood pressure lowering effect without increasing heart rate
